These results are taken from patent publication US10487093B2, “Heterocyclic compounds, in particular 2-oxo-4,4,5,5,6,6,7,7-octahydrobenzoxazole derivatives, and their use as antibacterial compounds” (priority 2016, dated 2019).

For assay [1], the system named is Staphylococcus aureus ATCC 29213. The experiment in a line: MIC, broth microdilution (CLSI) versus planktonic bacteria. The class given is cell-based. Conditions: ATCC29213; Staphylococcus aureus ATCC 29213; 16-20 h; mode of three independent experiments; read-out: MIC, Sa ATCC 29213. For orientation: Dilution methods test growth across graded concentrations, often in twofold steps.

Assay [2] concerns Pseudomonas aeruginosa ATCC 27853. Described as above. It is filed as cell-based. Conditions: ATCC27853; Pseudomonas aeruginosa ATCC 27853; 16-20 h; mode of three independent experiments; read-out: MIC, Pa ATCC 27853.
The test system of assay [3] is Enterococcus faecalis ATCC 29212. Described as above. To be noted: ATCC29212, 16-20 h, mode of three independent experiments, read-out: MIC, Ef ATCC 29212. The class given is cell-based.
For assay [4], the system named is human hepatic cell line (HepG2 ATCC HB-8065). Kind of assay: Human cell viability assay (CellTiter-Glo). To be noted: Homo sapiens, HepG2, 24 h, read-out: IC50 (μg/mL) HepG2. In general terms: Cellular ATP, detected with luciferase, serves as a proxy for viable cell number.
Assay [5] deals with Escherichia coli ATCC 25922. The experiment in a line: MIC, broth microdilution (CLSI) versus planktonic bacteria. The class given is cell-based. Conditions: ATCC25922; Escherichia coli ATCC 25922; 16-20 h; mode of three independent experiments; read-out: MIC, Ec ATCC 25922.
Assay [6] deals with Haemophilus influenzae ATCC 49247. The description is as above. The class given is cell-based. Conditions: ATCC49247; Haemophilus influenzae ATCC 49247; 16-20 h; mode of three independent experiments; read-out: MIC, Hi ATCC 49247.
Assay [7] relates to Acinetobacter baumannii ATCC 19606. The description is as above. Conditions: ATCC19606; Acinetobacter baumannii ATCC 19606; 16-20 h; mode of three independent experiments; read-out: MIC, Ab ATCC 19606. It is filed as cell-based.
Assay [8] relates to Enterobacter cloacae NCTC 13406. Described as above. It is filed as cell-based. To be noted: NCTC13406; Enterobacter cloacae NCTC 13406; 16-20 h; mode of three independent experiments; read-out: MIC, Ecl NCTC 13406.
The test system of assay [9] is Acinetobacter baumannii NCTC 13420. The assay is described as above. To be noted: NCTC13420; Acinetobacter baumannii NCTC 13420; 16-20 h; mode of three independent experiments; read-out: MIC, Ab NCTC 13420. It is filed as cell-based.
The next assay relates to E. coli MG1655. Described as above. The class given is cell-based, Escherichia coli. Conditions: Escherichia coli, MG1655, read-out: MIC, Ec MG1655 WT.
The subject of assay [10] is Streptococcus pneumoniae ATCC 49619. The description is as above. To be noted: ATCC49619; Streptococcus pneumoniae ATCC 49619; 16-20 h; mode of three independent experiments; read-out: MIC, Sp ATCC 49619. It is filed as cell-based.
In the next assay the test system is E. coli MG1655 D87G. The class given is cell-based, Escherichia coli. To be noted: compared to the isogenic parent strain E. coli MG1655; D87G mutation on DNA gyrase subunit GyrA.
The next assay has as its system E. coli NCTC 13476. Kind of assay: MIC, broth microdilution (CLSI) versus planktonic bacteria. It is filed as cell-based. To be noted: NCTC13476; Escherichia coli NCTC 13476; 16-20 h; mode of three independent experiments; read-out: MIC, Ec NCTC 13476.
For another assay, the system named is E. coli MG1655 S83L. The class given is cell-based, Escherichia coli. Conditions: compared to the isogenic parent strain E. coli MG1655; S83L mutation on DNA gyrase subunit GyrA.
In another assay the test system is E. coli ATCC BAA-2452. The experiment in a line: MIC, broth microdilution (CLSI) versus planktonic bacteria. It is filed as cell-based. Conditions: Escherichia coli ATCC BAA-2452; 16-20 h; mode of three independent experiments; read-out: MIC, Ec ATCC BAA 2452.

In brackets after ≈: the same amount, converted by molar mass.

For `NCCCOc1ccc2ccc(=O)n(CCN[C@@H]3CC[C@@H]4[C@@H](C3)OC(=O)N4c3ccc4c(n3)NC(=O)CO4)c2c1` [Compound 3, 1-(2-{[(3aR,6R,7aR)-2-oxo-3-{3-oxo-2H,3H,4H-pyrido[3,2-b][1,4]oxazin-6-yl}-octahydro-1,3-benzoxazol-6-yl]amino}ethyl)-7-(3-aminopropoxy)-1,2-dihydroquinolin-2-one], the MIC in [1] was < 1 µg/mL; in assay [2], 1 to 10 µg/mL (≈ 1.82 to 18.2 µM); in assay [3], < 1 µg/mL; in assay [5], 1 to 10 µg/mL (≈ 1.82 to 18.2 µM); in assay [6], 10 to 100 µg/mL (≈ 18.2 to 182 µM); in assay [7] it was > 100 µg/mL. Moreover, the MIC in assay [8] and in assay [9] was 10 to 100 µg/mL (≈ 18.2 to 182 µM) each time. Besides, in [4], the IC50 was > 100 µg/mL.

In the case of `N#Cc1ccc2ccc(=O)n(CCCN[C@H]3CC[C@H]4[C@H](C3)OC(=O)N4c3ccc4c(n3)NC(=O)CO4)c2c1` [Compound 60, 1-(3-{[(3aS,6S,7aS)-2-oxo-3-{3-oxo-2H,3H,4H-pyrido[3,2-b][1,4]oxazin-6-yl}-octahydro-1,3-benzoxazol-6-yl]amino}propyl)-2-oxo-1,2-dihydroquinoline-7-carbonitrile], the MIC (with E. coli MG1655; in [1]; in [10]; in [2]; in assay [3]; in assay [5]) was < 1 µg/mL each time. The MIC (in assay [6]; with E. coli NCTC 13476; in assay [7]; in assay [8]; in the assay on E. coli ATCC BAA-2452; in assay [9]) was < 1 µg/mL each time. Also, the “Fold increase in MIC, E. coli MG1655 D87G” value with E. coli MG1655 D87G worked out at 2 fold. For the same molecule, the IC50 in assay [4] was 10 to 100 µg/mL (≈ 19.4 to 194 µM). In the assay with E. coli MG1655 S83L, the “Fold increase in MIC, E. coli MG1655 S83L” value is 4 fold.

As for `O=C1COc2ccc(N3C(=O)O[C@@H]4C[C@H](NCCCn5c(=O)cnc6cc(F)c(F)cc65)CC[C@H]43)nc2N1` [Compound 88, 1-(3-{[(3aR,6R,7aR)-2-oxo-3-{3-oxo-2H,3H,4H-pyrido[3,2-b][1,4]oxazin-6-yl}-octahydro-1,3-benzoxazol-6-yl]amino}propyl)-6,7-difluoro-1,2-dihydroquinoxalin-2-one], the MIC in the assay on E. coli MG1655 was < 1 µg/mL; in assay [1], < 1 µg/mL; in [10], < 1 µg/mL; in assay [2], 1 to 10 µg/mL (≈ 1.9 to 19 µM); in assay [5], < 1 µg/mL; in assay [6], < 1 µg/mL. The MIC (with E. coli NCTC 13476; in assay [7]; in assay [8]; in the assay on E. coli ATCC BAA-2452; in assay [9]) was < 1 µg/mL in each case. Further, the “Fold increase in MIC, E. coli MG1655 D87G” value in the assay on E. coli MG1655 D87G came out at 1 fold. Further, the IC50 in assay [4] lay within 10 to 100 µg/mL (≈ 19 to 190 µM). For the same molecule, in the assay with E. coli MG1655 S83L, the “Fold increase in MIC, E. coli MG1655 S83L” value is on record as 2 fold.

Consider `O=C1COc2ccc(N3C(=O)O[C@H]4C[C@@H](NCCCn5c(=O)cnc6cc(F)c(F)cc65)CC[C@@H]43)nc2N1` [Compound 90, 1-(3-{[(3aS,6S,7aS)-2-oxo-3-{3-oxo-2H,3H,4H-pyrido[3,2-b][1,4]oxazin-6-yl}-octahydro-1,3-benzoxazol-6-yl]amino}propyl)-6,7-difluoro-1,2-dihydroquinoxalin-2-one], for which the MIC in the assay on E. coli MG1655 is < 1 µg/mL; in assay [1] it was < 1 µg/mL; in assay [10], < 1 µg/mL; in assay [2] it was 1 to 10 µg/mL (≈ 1.9 to 19 µM); in [5] it was < 1 µg/mL; in [6], < 1 µg/mL. The MIC (in the assay with E. coli NCTC 13476; in assay [7]; in [8]; in the assay with E. coli ATCC BAA-2452; in assay [9]) was < 1 µg/mL throughout. Moreover, the “Fold increase in MIC, E. coli MG1655 D87G” value in the assay on E. coli MG1655 D87G came out at 4 fold. In assay [4], the IC50 lay within 10 to 100 µg/mL (≈ 19 to 190 µM). Besides, the “Fold increase in MIC, E. coli MG1655 S83L” value in the assay on E. coli MG1655 S83L was 2 fold.

`O=C1COc2ccc(N3C(=O)O[C@H]4C[C@@H](NCCCn5c(=O)cnc6ccc(F)cc65)CC[C@@H]43)nc2N1` [Compound 92, 1-(3-{[(3aS,6S,7aS)-2-oxo-3-{3-oxo-2H,3H,4H-pyrido[3,2-b][1,4]oxazin-6-yl}-octahydro-1,3-benzoxazol-6-yl]amino}propyl)-7-fluoro-1,2-dihydroquinoxalin-2-one]: the MIC (with E. coli MG1655; in assay [1]; in assay [10]; in assay [2]; in assay [5]; in assay [6]) was < 1 µg/mL in each case. In addition, the MIC (in the assay on E. coli NCTC 13476; in assay [7]; in [8]; in the assay with E. coli ATCC BAA-2452; in [9]) was < 1 µg/mL in each case. Besides, the “Fold increase in MIC, E. coli MG1655 D87G” value with E. coli MG1655 D87G worked out at 1 fold. For the same molecule, in assay [4], the IC50 was > 100 µg/mL. In addition, the “Fold increase in MIC, E. coli MG1655 S83L” value in the assay on E. coli MG1655 S83L came out at 1 fold.

For the molecule `O=C1COc2ccc(N3C(=O)O[C@H]4C[C@@H](NCCCn5c(=O)ccc6ncc(OC(F)F)cc65)CC[C@@H]43)nc2N1` [Compound 93, 1-(3-{[(3aS,6S,7aS)-2-oxo-3-{3-oxo-2H,3H,4H-pyrido[3,2-b][1,4]oxazin-6-yl}-octahydro-1,3-benzoxazol-6-yl]amino}propyl)-7-(difluoromethoxy)-1,2-dihydro-1,5-naphthyridin-2-one], the MIC (in the assay on E. coli MG1655; in [1]; in assay [10]; in assay [2]; in [5]; in assay [6]) was < 1 µg/mL in each case. In addition, the MIC in the assay on E. coli NCTC 13476 is < 1 µg/mL; in [7], < 1 µg/mL; in assay [8] it was 1 to 10 µg/mL (≈ 1.8 to 18 µM); with E. coli ATCC BAA-2452, < 1 µg/mL; in assay [9], < 1 µg/mL. For the same molecule, the “Fold increase in MIC, E. coli MG1655 D87G” value in the assay on E. coli MG1655 D87G is listed as 1 fold. Further, the IC50 in [4] was > 100 µg/mL. Further, in the assay on E. coli MG1655 S83L, the “Fold increase in MIC, E. coli MG1655 S83L” value came to 1 fold.

As to `COc1cnc2ccc(=O)n(CCCN[C@H]3CC[C@H]4[C@H](C3)OC(=O)N4c3ccc4c(n3)NC(=O)CO4)c2c1` [Compound 99, 1-(3-{[(3aS,6S,7aS)-2-oxo-3-{3-oxo-2H,3H,4H-pyrido[3,2-b][1,4]oxazin-6-yl}-octahydro-1,3-benzoxazol-6-yl]amino}propyl)-7-methoxy-1,2-dihydro-1,5-naphthyridin-2-one], the MIC was < 1 µg/mL in the assay with E. coli MG1655; < 1 µg/mL in assay [1]; < 1 µg/mL in assay [10]; 1 to 10 µg/mL (≈ 1.92 to 19.2 µM) in assay [2]; < 1 µg/mL in assay [5]; < 1 µg/mL in [6]. In addition, the MIC was < 1 µg/mL with E. coli NCTC 13476; 1 to 10 µg/mL (≈ 1.92 to 19.2 µM) in assay [7]; 1 to 10 µg/mL (≈ 1.92 to 19.2 µM) in assay [8]; < 1 µg/mL with E. coli ATCC BAA-2452; < 1 µg/mL in [9]. Also, the “Fold increase in MIC, E. coli MG1655 D87G” value in the assay on E. coli MG1655 D87G is 1 fold. Moreover, in assay [4], the IC50 fell in the range of 10 to 100 µg/mL (≈ 19.2 to 192 µM). Moreover, the “Fold increase in MIC, E. coli MG1655 S83L” value in the assay with E. coli MG1655 S83L came out at 0.5 fold.

Turning to `O=C1COc2ccc(N3C(=O)O[C@H]4C[C@@H](NCCn5c(=O)ccc6nccnc65)CC[C@@H]43)nc2N1` [Compound 100, (3aS,6S,7aS)-3-{3-oxo-2H,3H,4H-pyrido[3,2-b][1,4]oxazin-6-yl}-6-[(2-{6-oxo-5H,6H-pyrido[2,3-b]pyrazin-5-yl}ethyl)amino]-octahydro-1,3-benzoxazol-2-one], the MIC in the assay on E. coli MG1655 was < 1 µg/mL; in assay [1] it was < 1 µg/mL; in assay [10], < 1 µg/mL; in [2], 10 to 100 µg/mL (≈ 20.9 to 209 µM); in assay [5] it was < 1 µg/mL; in [6], < 1 µg/mL. Further, the MIC is 1 to 10 µg/mL (≈ 2.09 to 20.9 µM) with E. coli NCTC 13476; 1 to 10 µg/mL (≈ 2.09 to 20.9 µM) in assay [7]; 1 to 10 µg/mL (≈ 2.09 to 20.9 µM) in [8]; 1 to 10 µg/mL (≈ 2.09 to 20.9 µM) in the assay on E. coli ATCC BAA-2452; < 1 µg/mL in [9]. Besides, in the assay with E. coli MG1655 D87G, the “Fold increase in MIC, E. coli MG1655 D87G” value is reported as 1 fold. For the same molecule, the IC50 in assay [4] is > 100 µg/mL. Besides, the “Fold increase in MIC, E. coli MG1655 S83L” value with E. coli MG1655 S83L is given as 1 fold.
